Legend:
[1] = test system: Human breast adenocarcinoma cell line (MDA-MB-231); test: Cytotoxicity test / growth inhibition, MDA-MB-231; assay type: cell-based; details: MDA-MB-231, 48 hours, cell counting
Description: (§1) Cells were purchased from American Type Culture Collection (ATCC, Manassas, Va., USA). The LNCaP (ATCC® CRL-1740™), A549 (ATCC® CCL-185™), MDA-MB-231 (ATCC® CRM-HTB-26™), 22Rv1 (ATCC® CRL-2505™), HCT-116 (ATCC® CCL-247™) and PC3 (ATCC® CRL-1435™) cells were maintained in Roswell Park Memorial Institute 1640 medium (RPMI; Euroclone, ECB9006L) supplemented with 10% fetal bovine serum (Euroclone; ECS0180L), 2 mM L-glutamine, 100 units/mL penicillin and […] streptomycin at 37° C. in an atmosphere of 5% CO2/air. DU145 (ATCC® HTB-81™), and DAOY (ATCC® HTB-186™) cells were maintained in Eagle's minimal essential medium (EMEM; Euro-clone, ECM0445L) supplemented with 10% fetal bovine serum (Euroclone; ECS0180L), 2 mM L-glutamine, 100 units/ml penicillin and […] streptomycin at 37° C. in an atmosphere of 5% CO2/air. SH-SY5Y (ATCC® CRL-2266™), DBRTG (ATCC® CRL-2020™), HeLa (ATCC® CCL-2™), HN6 cells (kindly provided by Dr Silvio Gutkind, UCSD Medical Center, Moores Cancer Center USA, Chen J. J et al, Oncotarget 2013, 4, 206-217)), U2OS (ATCC® HTB-96™), RD18 cells (kindly provided by Dr P. Boccuni Memorial Sloan-Kettering Cancer Center, New York, USA Vella S. et al. Clin Epigenetics. 2015 6; 7-82), cells were maintained in Dulbecco's modified Eagle's medium (DMEM; Euroclone, ECB7501L) supplemented with 10% fetal bovine serum (Euroclone; ECS0180L), 2 mM L-glutamine, 100 units/ml penicillin and […] streptomycin at 37° C. in an atmosphere of 5% CO2/air.
(§2) Cell lines were seeded at appropriate densities in 2 mL growth medium in 6-wells culture plates 24 hours before the treatment with the inhibitor compounds. After 24 h the culture medium was removed and fresh medium containing increasing concentrations of chemical compounds was added to cells. The fixed final concentrations were: 0.1 μM, 1 μM, 10 μM, 100 μM. DMSO was the vehicle used for dilution of the compounds and its final concentration on cells was less than 0.2%. Medium-only containing wells were included as controls. Cells were incubated 48 hours with drugs and, then, cell viability was evaluated.
(§3) Cells were detached from each well of the 6-wells plates with 300 μL of Trypsin and suspended in culture medium to a final volume of 1 mL. Cell viability was then assessed through cell counting. Cells were diluted in 1:50 ratio of an isotonic buffered diluent, Isoton (Backman Coulter), following the manufacturer's instructions, and counted using an automated cell counter (Z2 series Coulter Counter, Beckman Coulter). Each cell count was performed in three replicates. The values corresponding to the relative survival of cells in presence of each chemical compound at single concentrations were normalized to the untreated controls. Then, the half maximal inhibitory concentration (IC50) value, which represent the drug concentration that is required to induce a 50% growth inhibition in vitro, was calculated with GraphPad Prism 6.0 software using the best fitting sigmoid curve.

[2] = test system: Human adenocarcinomic alveolar basal epithelial cell line (A549); test: Cytotoxicity test / growth inhibition, A549; assay type: cell-based; details: A549, 48 hours, cell counting
Description: as §1, §2, §3

[3] = test system: Human osteosarcoma cell line (U2OS); test: Cytotoxicity test / growth inhibition, U2OS; assay type: cell-based; details: 48 hours, cell counting
Description: as §1, §2, §3

[4] = test system: Human head and neck squamous carcinoma cell line (HN6); test: Cytotoxicity test / growth inhibition, HN6; assay type: cell-based; details: HN6, 48 hours, cell counting
Description: as §1, §2, §3

[5] = Parallel Artificial Membrane Permeability Assay (PAMPA), GI; assay type: in vitro ADME; details: GI (intestinal) PAMPA, value in brackets
Description: Parallel Artificial Membrane Permeability Assay (PAMPA). Donor solution (0.5 mM) was prepared by diluting 1 mM dimethylsulfoxide (DMSO) compound stock solution using phosphate buffer (pH 7.4, 0.025 M). Filters were coated with 5 μL of a 1% (w/v) dodecane solution of phosphatidylcholine prepared from CHCl3 solution 10% w/v, for intestinal permeability. Donor solution (150 μL) was added to each well of the filter plate. To each well of the acceptor plate were added 300 μL of solution (50% DMSO in phosphate buffer). All compounds were tested in three different plates on different days. The sandwich was incubated for 5 h at room temperature under gentle shaking. After the incubation time, the plates were separated, and samples were taken from both receiver and donor sides and analyzed using LC with UV detection at 280 nm.
LC analysis were performed with a Varian Prostar HPLC system (Varian Analytical Instruments, USA) equipped with a binary pump with a manual injection valve and model Prostar 325 UV-VIS Detector. Chromatographic separations were conducted using a Polaris C18-A column (150-4.6 mm, 5 μm particle size) at a flow rate of 0.8 mL min^−1 with a mobile phase composed of 60% ACN/40% H2O.
Permeability (Papp) for PAMPA was calculated according to the following equation, obtained from Wohnsland and Faller and Sugano et al. equation with some modification in order to obtain permeability values in cm s^−1,
where VA is the volume in the acceptor well, VD is the volume in the donor well (cm^3), A is the “effective area” of the membrane (cm^2), t is the incubation time (s) and r the ratio between drug concentration in the acceptor and equilibrium concentration of the drug in the total volume (VD+VA). Drug concentration is estimated by using the peak area integration.
Membrane retentions (%) were calculated according to the following equation: […]
where r is the ratio between drug concentration in the acceptor and equilibrium concentration, D, A, and Eq represented drug concentration in the donor, acceptor and equilibrium solution, respectively.

Water Solubility Assay = assay type: physicochemical; details: for LogS: from aqueous solubility; for Aq. Solub.: water, room temperature, 24-36 h
Description: Water Solubility Assay. Each solid compound (1 mg) was added to 1 mL of water. The samples were shaked in a shaker bath at room temperature for 24-36 h. The suspensions were filtered through a 0.45 μm nylon filter (Acrodisc), and the solubilized compound determined by LC-MS-MS assay. For each compound the determination was performed in triplicate.
(§4) For the quantification was used an LC-MS system consisted of a Varian apparatus (Varian Inc) including a vacuum solvent degassing unit, two pumps (212-LC), a Triple Quadrupole MSD (Mod. 320-LC) mass spectrometer with ES interface and Varian MS Workstation System Control Vers. 6.9 software. Chromatographic separation was obtained using a Pursuit C18 column (50×2.0 mm) (Varian) with 3 μm particle size and gradient elution: eluent A being ACN and eluent B consisting of water. […] The flow rate was 0.2 mL min^−1 and injection volume was 5 μL. The instrument operated in positive mode and parameters were: detector 1850 V, drying gas pressure 25.0 psi, desolvation temperature 300.0° C., nebulizing gas 40.0 psi, needle 5000 V and shield 600 V. Nitrogen was used as nebulizer gas and drying gas. Collision induced dissociation was performed using Argon as the collision gas at a pressure of 1.8 mTorr in the collision cell. Microsomal Stability Assay. […] The reaction was stopped by cooling on ice and adding 1.0 mL of acetonitrile. The reaction mixtures were then centrifuged, and the parent drug and metabolites were subsequently determined by LC-UV-MS. Chromatographic analysis was performed with an Agilent 1100 LC/MSD VL system (G1946C) (Agilent Technologies, Palo Alto, Calif.) constituted by a vacuum solvent degassing unit, a binary high-pressure gradient pump, an 1100 series UV detector, and an 1100 MSD model VL benchtop mass spectrometer.

[6] = target: T1, Human recombinant DDX3 (DDX3 wt helicase) (Homo sapiens, UniProt O00571); test: Helicase assay (anti-enzymatic activity against the DDX3 helicase); assay type: biochemical; details: for activity compared with compound EI01D: DDX3 helicase inhibition relative to EI01D
T1 construct: made in house
Description: The helicase activity of DDX3 wt was monitored by measuring the conversion of a double stranded (ds) RNA (labelled at the 5′-end of one strand with a 6-FAM fluorescent) into single stranded (ss) nucleic acid. A final concentration of 25 nM RNA substrate was used in the experiments, unless otherwise stated. Reactions were performed in 50 mM TrisHCl pH 7.5, 1 mM DTT, 0.2 mg/ml BSA, 5% glycerol and 100 μM ATP, 10 mM MgCl2 at 37° C. degrees for 10′ and stopped by adding EDTA 50 mM pH 8. Products were separated through non-denaturating 8% PAGE at 5 W for 4 hours in TBE buffer at 4° C. Substrates and products were quantified by laser scanning densitometry (Thyphoon-TRIO, GE Healthcare).
Human recombinant DDX3 was cloned, expressed and purified as described (Franca et al. Proteins 2007, 67, 1128-37).

[7] = Microsomal Stability Assay (HLM); assay type: in vitro ADME; details: human liver microsomes, 37° C., 60 min, NADPH-generating system; percentage of not metabolized compound
From the text: as §4
Chromatographic separation was obtained using a Varian Polaris C18-A column (150-4.6 mm, 5 μm particle size) and gradient elution: eluent A being ACN and eluent B consisting of water. […] The flow rate was 0.8 mL min^−1 and injection volume was 20 μL.
The Agilent 1100 series mass spectra detection (MSD) single-quadrupole instrument was equipped with the orthogonal spray API-ES (Agilent Technologies, Palo Alto, Calif.). Nitrogen was used as nebulizing and drying gas. The pressure of the nebulizing gas, the flow of the drying gas, the capillary voltage, the fragmentor voltage, and the vaporization temperature were set at 40 psi, 9 L/min, 3000 V, 70 V, and 350° C., respectively. UV detection was monitored at 280 nm. The LC-ESI-MS determination was performed by operating the MSD in the positive ion mode. Spectra were acquired over the scan range m/z 100-1500 using a step size of 0.1 u. The percentage of not metabolized compound was calculated by comparison with reference solutions.

T1 sequence (O00571 whole entry): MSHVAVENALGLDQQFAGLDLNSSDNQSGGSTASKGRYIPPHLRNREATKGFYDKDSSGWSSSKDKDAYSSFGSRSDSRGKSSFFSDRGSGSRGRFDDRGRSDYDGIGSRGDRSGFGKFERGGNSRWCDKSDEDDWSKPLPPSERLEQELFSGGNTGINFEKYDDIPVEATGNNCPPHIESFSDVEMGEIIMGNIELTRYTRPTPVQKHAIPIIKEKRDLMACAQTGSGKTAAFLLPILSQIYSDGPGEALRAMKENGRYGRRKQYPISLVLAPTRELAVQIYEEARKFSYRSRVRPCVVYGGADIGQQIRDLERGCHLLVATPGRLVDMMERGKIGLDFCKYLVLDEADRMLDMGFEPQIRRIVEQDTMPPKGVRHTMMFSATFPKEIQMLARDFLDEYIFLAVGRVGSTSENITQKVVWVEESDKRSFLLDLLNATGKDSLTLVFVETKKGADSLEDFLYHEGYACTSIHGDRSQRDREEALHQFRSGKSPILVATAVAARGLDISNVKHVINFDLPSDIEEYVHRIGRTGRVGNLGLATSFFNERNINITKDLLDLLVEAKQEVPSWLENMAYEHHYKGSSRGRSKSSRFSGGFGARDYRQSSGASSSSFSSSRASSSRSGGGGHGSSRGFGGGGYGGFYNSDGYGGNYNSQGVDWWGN

CCCC(C)C(F)c1cn(-c2ccc(NC(=O)Nc3ccccc3C(F)(F)F)cc2)nn1 (stereo not shown) [Compound 42c, 1-(4-(4-(1-fluoro-2-methylpentyl)-1H-1,2,3-triazol-1-yl)phenyl)-3-(2-(trifluoromethyl)phenyl) urea]
IC50 [1]: 33.6 µM
IC50 [2]: 57.2 µM
IC50 [3]: 22.5 µM
IC50 [4]: 6.32 µM

Cc1c(Cl)cccc1NC(=O)Nc1ccc(-n2cc(CCC(C)C)nn2)cc1 [Compound 21b, 1-(3-chloro-2-methylphenyl)-3-(4-(4-isopentyl-1H-1,2,3-triazol-1-yl)phenyl)urea]
PAMPA GI (RM %) membrane retention [5]: 59.1%
LogS (Water Solubility Assay): <−8.6
Aq. Solub. (Water Solubility Assay): <0.001 µg/mL

CCOCn1nnc(-c2ccc(NC(=O)Nc3ccccc3C)cc2)n1 [Compound 50, 1-(4-(2-(ethoxymethyl)-2H-tetrazol-5-yl)phenyl)-3-(o-tolyl)urea]
IC50 [1]: 23.5 µM

CCCCn1nnc(-c2ccc(NC(=O)Nc3ccccc3C(F)(F)F)cc2)n1 [Compound 51, 1-(4-(2-butyl-2H-tetrazol-5-yl)phenyl)-3-(2-(trifluoromethyl)phenyl)urea]
IC50 [3]: 51.5 µM
IC50 [4]: 16.4 µM

CCCCc1nnc(-c2ccc(NC(=O)Nc3ccccc3C(F)(F)F)cc2)s1 [Compound 124, 1-(4-(5-butyl-1,3,4-thiadiazol-2-yl)phenyl)-3-(2-(trifluoromethyl)phenyl)urea]
IC50 [3]: 60.1 µM

CC(C)CCc1cn(-c2ccc(NC(=O)Nc3cccc(F)c3)cc2)nn1 [Compound 55b, 1-(3-fluorophenyl)-3-(4-(4-isopentyl-1H-1,2,3-triazol-1-yl)phenyl)urea]
activity compared with compound EI01D [6]: approximately ten-fold more active

CC(C)CCc1cn(-c2ccc(NC(=O)Nc3ccccc3C(F)(F)F)cn2)nn1 [Compound 86, 1-(6-(4-isopentyl-1H-1,2,3-triazol-1-yl)pyridin-3-yl)-3-(2-(trifluoromethyl)phenyl)urea]
IC50 ([6]; DDX3 helicase activity, dsRNA unwinding, n.a = Compound not active, read-out: ID50 (the source's name)): 51 µM

CC(C)CCc1cn(-c2ccc(NC(=O)Nc3ccccc3C(F)(F)F)cc2)nn1 [Compound 22b, 1-(4-(4-isopentyl-1H-1,2,3-triazol-1-yl)phenyl)-3-(2-(trifluoromethyl)phenyl)urea]
activity compared with compound EI01D [6]: approximately ten-fold more active
PAMPA GI (RM %) membrane retention [5]: 24.8%
LogS (Water Solubility Assay): <−8.6
IC50 [1]: 13.1 µM

CC(C)CCc1cn(-c2ccc(NC(=O)Nc3ccccc3F)cc2)nn1 [Compound 55a, 1-(2-fluorophenyl)-3-(4-(4-isopentyl-1H-1,2,3-triazol-1-yl)phenyl)urea]
activity compared with compound EI01D [6]: approximately ten-fold more active

COCCc1cn(-c2ccc(NC(=O)Nc3ccccc3C)cc2)nn1 [Compound 20f, 1-(4-(4-(2-methoxyethyl)-1H-1,2,3-triazol-1-yl)phenyl)-3-o-tolylurea]
PAMPA GI (RM %) membrane retention [5]: 7.4%

CCCCc1cn(-c2ccc(NC(=O)Nc3ccccc3C(F)(F)F)cc2F)nn1 [Compound 81, 1-(4-(4-butyl-1H-1,2,3-triazol-1-yl)-3-fluorophenyl)-3-(2-(trifluoromethyl)phenyl)urea]
PAMPA GI (RM %) membrane retention [5]: 30.4%
Sability % [7]: 94%
IC50 [1]: 25.1 µM

Cc1ccccc1NC(=O)Nc1ccc(-n2cc(CCC(C)C)nn2)cc1 [Compound 20b, 1-(4-(4-isopentyl-1H-1,2,3-triazol-1-yl)phenyl)-3-o-tolylurea]
PAMPA GI (RM %) membrane retention [5]: 26.7%
LogS (Water Solubility Assay): <−8.6
Aq. Solub. (Water Solubility Assay): <0.001 µg/mL

Reference: US11000512B2, “Use of DDX3 inhibitors as antiproliferative agents” (AZIENDA OSPEDALIERA UNIVERSITARIA SENESE, priority 2016, dated 2021)
